Data taken from article PMC7845594, “Novel Immune Modulators Enhance Caenorhabditis elegans Resistance to Multiple Pathogens” (mSphere, 2021).

Tests used:
[1] = system: C. elegans host defense pathway genes; assay: nanoString expression of 115 immune- and stress-responsive genes; conditions: 100 μM LK molecules, 16 h
Protocol: The ratio of MIC to EC was determined for each of the 69 compounds.
Analysis of the expression of 115 immune- and stress-responsive genes using nanoString technology. Download Table S1, XLSX file, 0.02 MB.
For nanoString-based (nanoString Technologies, Seattle, WA) experiments, 2,000 wild-type, young adult worms were exposed to 100 μM LK molecules or DMSO control in S Basal medium in 6-well plates for 16 h. RNA purification and gene expression analysis were performed according to nanoString guidelines. Two biological replicates were tested for each condition.

glp-4(bn2) worms = assay: Longevity (life span) assay; conditions: 50 μM in NGM, E. coli OP50, Fig 3A
Protocol: To test the long-term toxicity of the hit compounds, life span assays were carried out by placing sterile, young adult glp-4(bn2) worms on NGM (standard nematode growth media, defined in Materials and Methods) seeded with Escherichia coli OP50. […] Sterile worms were used to eliminate the need to transfer worms between plates during life span assays, and we elected to use glp-4(bn2) to induce sterility instead of using wild-type worms sterilized with 5-fluoro-2′-deoxyuridine (FUDR) because the interaction of the compounds could generate artifacts during the long course of life span experiments.
Worms were scored daily by prodding. […] The viability was normalized to a DMSO solvent control. […] Error bars represent standard error of the mean.
Worms were picked onto agar plates seeded with 50 µl of concentrated E. coli OP50. Compounds were added to liquid agar before pouring plates. Worms were scored every day for death by prodding with a platinum wire. Worms that escaped the plate or died on the wall of the plate were censored. Each compound was tested in at least three biological replicates, each including 50 to 70 worms.

## COC(=O)/C=C/C(=O)Nc1ccccc1 [LK32]
[1]
  B0024.4 expression, induction: 2.44 fold
  C02B4.2 nhr-17 expression, induction: 5.68 fold
  C06B3.7 expression, induction: 4.23 fold
  C07G3.2 irg-1 expression, induction: 2.20 fold
  C12C8.1 hsp-70 expression, induction: 3.77 fold
  C15F1.7 sod-1 expression, induction: 4.46 fold
  C29F7.2 expression, induction: 2.80 fold
  C31A11.5 oac-6 expression, induction: 4.01 fold
  C32D5.12 expression, induction: 3.70 fold
  C32H11.1 expression, induction: 1.40 fold
  C32H11.3 expression, induction: 2.32 fold
  C34G6.4 pgp-2 expression, induction: 1.90 fold
  C37C3.10 expression, induction: 4.08 fold
  C37H5.8 hsp-6 expression, induction: 3.96 fold
  C49G7.5 irg-2 expression, induction: 4.83 fold
  F08F8.5 numr-1 expression, induction: 8.48 fold
  F08H9.4 expression, induction: 1.80 fold
  F14F9.3 expression, induction: 4.80 fold
  F22B5.4 expression, induction: 3.08 fold
  F22H10.2 expression, induction: 3.76 fold
  F26A3.4 expression, induction: 4.23 fold
  F35E8.11 cdr-1 expression, induction: 3.13 fold
  F35G2.4 phy-2 expression, induction: 4.53 fold
  F37B12.2 gcs-1 expression, induction: 7.02 fold
  F43E2.8 hsp-4 expression, induction: 2.75 fold
  F44E5.5 expression, induction: 3.34 fold
  F49F1.6 expression, induction: 2.28 fold
  F49F1.7 expression, induction: 2.35 fold
  F49H6.13 expression, induction: 6.69 fold
  F54B8.4 expression, induction: 2.74 fold
  F55G11.2 expression, induction: 3.21 fold
  F59A7.1 clec-206 expression, induction: 3.26 fold
  F59B10.4 expression, induction: 3.51 fold
  H12D21.1 nspa-1 expression, induction: 52.37 fold
  H23N18.1 ugt-13 expression, induction: 8.50 fold
  H23N18.3 ugt-8 expression, induction: 18.61 fold
  K05B2.4 expression, induction: 1.82 fold
  K08F4.7 gst-4 expression, induction: 18.20 fold
  K09A9.1 nipi-3 expression, induction: 4.75 fold
  K10D11.2 expression, induction: 2.89 fold
  K10G4.3 expression, induction: 2.75 fold
  R03D7.6 gst-5 expression, induction: 46.52 fold
  R08H2.1 dhs-23 expression, induction: 2.72 fold
  R10E8.3 expression, induction: 7.07 fold
  T19D12.3 expression, induction: 9.28 fold
  T19H12.1 ugt-9 expression, induction: 14.98 fold
  T21E8.1 pgp-6 expression, induction: 2.05 fold
  T22B7.3 expression, induction: 6.13 fold
  T24C4.4 expression, induction: 3.75 fold
  T24E12.5 expression, induction: 2.28 fold
  T27E4.3 hsp-16.48 expression, induction: 5.22 fold
  T27E4.8 hsp-16.1 expression, induction: 4.29 fold
  T27F6.8 expression, induction: 5.12 fold
  T28C12.4 expression, induction: 9.85 fold
  W02D9.10 expression, induction: 4.35 fold
  Y22D7AL.5 hsp-60 expression, induction: 4.03 fold
  Y38E10A.15 nspe-7 expression, induction: 2.18 fold
  Y46H3A.2 hsp-16.41 expression, induction: 4.09 fold
  Y46H3A.3 hsp-16.2 expression, induction: 4.04 fold
  Y56A3A.33 expression, induction: 4.81 fold
  Y58A7A.5 expression, induction: 8.58 fold
  ZC376.7 atfs-1 expression, induction: 5.61 fold
  ZC443.6 ugt-16 expression, induction: 3.20 fold
  ZK697.6 gst-21 expression, induction: 2.57 fold
glp-4(bn2) worms
  TD50 (time to 50% death), life span: 8.8 days

## O=c1cc(CNc2ccc(Br)cc2)nc2sccn12 [LK56]
[1]
  B0024.4 expression, induction: 2.13 fold
  C02B4.2 nhr-17 expression, induction: 1.97 fold
  C06B3.7 expression, induction: 1.14 fold
  C07G3.2 irg-1 expression, induction: 1.40 fold
  C12C8.1 hsp-70 expression, induction: 1.04 fold
  C15F1.7 sod-1 expression, induction: 2.09 fold
  C29F7.2 expression, induction: 14.61 fold
  C31A11.5 oac-6 expression, induction: 2.72 fold
  C32D5.12 expression, induction: 1.17 fold
  C32H11.1 expression, induction: 8.05 fold
  C32H11.3 expression, induction: 1.05 fold
  C34G6.4 pgp-2 expression, induction: 1.72 fold
  C37C3.10 expression, induction: 3.56 fold
  C37H5.8 hsp-6 expression, induction: 1.45 fold
  C49G7.5 irg-2 expression, induction: 2.13 fold
  F08F8.5 numr-1 expression, induction: 3.14 fold
  F08H9.4 expression, induction: 1.04 fold
  F14F9.3 expression, induction: 1.84 fold
  F22B5.4 expression, induction: 2.10 fold
  F22H10.2 expression, induction: 1.87 fold
  F26A3.4 expression, induction: 1.98 fold
  F35E8.11 cdr-1 expression, induction: 47.99 fold
  F35G2.4 phy-2 expression, induction: 1.43 fold
  F37B12.2 gcs-1 expression, induction: 1.20 fold
  F43E2.8 hsp-4 expression, induction: 1.17 fold
  F44E5.5 expression, induction: 1.42 fold
  F49F1.6 expression, induction: 1.76 fold
  F49F1.7 expression, induction: 4.06 fold
  F49H6.13 expression, induction: 1.42 fold
  F54B8.4 expression, induction: 3.28 fold
  F55G11.2 expression, induction: 2.09 fold
  F59A7.1 clec-206 expression, induction: 12.55 fold
  F59B10.4 expression, induction: 1.53 fold
  H12D21.1 nspa-1 expression, induction: 2.13 fold
  H23N18.1 ugt-13 expression, induction: 4.36 fold
  H23N18.3 ugt-8 expression, induction: 20.66 fold
  K05B2.4 expression, induction: 2.91 fold
  K08F4.7 gst-4 expression, induction: 1.69 fold
  K09A9.1 nipi-3 expression, induction: 2.25 fold
  K10D11.2 expression, induction: 1.72 fold
  K10G4.3 expression, induction: 1.36 fold
  R03D7.6 gst-5 expression, induction: 23.60 fold
  R08H2.1 dhs-23 expression, induction: 182.18 fold
  R10E8.3 expression, induction: 1.01 fold
  T19D12.3 expression, induction: 2.00 fold
  T19H12.1 ugt-9 expression, induction: 6.54 fold
  T21E8.1 pgp-6 expression, induction: 0.89 fold
  T22B7.3 expression, induction: 1.38 fold
  T24C4.4 expression, induction: 1.93 fold
  T24E12.5 expression, induction: 2.19 fold
  T27E4.3 hsp-16.48 expression, induction: 1.38 fold
  T27E4.8 hsp-16.1 expression, induction: 1.30 fold
  T27F6.8 expression, induction: 2.98 fold
  T28C12.4 expression, induction: 7.67 fold
  W02D9.10 expression, induction: 2.27 fold
  Y22D7AL.5 hsp-60 expression, induction: 1.56 fold
  Y38E10A.15 nspe-7 expression, induction: 0.87 fold
  Y46H3A.2 hsp-16.41 expression, induction: 1.11 fold
  Y46H3A.3 hsp-16.2 expression, induction: 1.21 fold
  Y56A3A.33 expression, induction: 2.67 fold
  Y58A7A.5 expression, induction: 1.53 fold
  ZC376.7 atfs-1 expression, induction: 1.86 fold
  ZC443.6 ugt-16 expression, induction: 27.68 fold
  ZK697.6 gst-21 expression, induction: 8.40 fold
glp-4(bn2) worms
  TD50 (time to 50% death), life span: 7.8 days

## CNC(=O)Oc1c(Br)cc2sc(=O)oc2c1Br [LK34]
[1]
  B0024.4 expression, induction: 0.79 fold
  C02B4.2 nhr-17 expression, induction: 1.60 fold
  C03G6.15 cyp-35A2 expression, induction: 2.32 fold
  C06B3.3 cyp-35C1 expression, induction: 2.40 fold
  C06B3.7 expression, induction: 2.34 fold
  C07G3.2 irg-1 expression, induction: 2.14 fold
  C12C8.1 hsp-70 expression, induction: 2.02 fold
  C15F1.7 sod-1 expression, induction: 2.23 fold
  C29F7.2 expression, induction: 1.42 fold
  C31A11.5 oac-6 expression, induction: 3.81 fold
  C32D5.12 expression, induction: 2.84 fold
  C32H11.1 expression, induction: 5.22 fold
  C32H11.3 expression, induction: 4.04 fold
  C34G6.4 pgp-2 expression, induction: 1.78 fold
  C37C3.10 expression, induction: 2.56 fold
  C37H5.8 hsp-6 expression, induction: 2.28 fold
  C49G7.5 irg-2 expression, induction: 2.61 fold
  F08F8.5 numr-1 expression, induction: 3.73 fold
  F08H9.4 expression, induction: 2.08 fold
  F14F9.3 expression, induction: 2.72 fold
  F22B5.4 expression, induction: 0.86 fold
  F22H10.2 expression, induction: 1.72 fold
  F26A3.4 expression, induction: 1.09 fold
  F35E8.11 cdr-1 expression, induction: 3.15 fold
  F35G2.4 phy-2 expression, induction: 1.71 fold
  F37B12.2 gcs-1 expression, induction: 4.32 fold
  F43E2.8 hsp-4 expression, induction: 2.24 fold
  F44E5.5 expression, induction: 1.49 fold
  F49F1.6 expression, induction: 1.85 fold
  F49F1.7 expression, induction: 3.64 fold
  F49H6.13 expression, induction: 2.55 fold
  F54B8.4 expression, induction: 1.78 fold
  F55G11.2 expression, induction: 1.39 fold
  F59A7.1 clec-206 expression, induction: 2.12 fold
  F59B10.4 expression, induction: 1.89 fold
  H12D21.1 nspa-1 expression, induction: 39.17 fold
  H23N18.1 ugt-13 expression, induction: 2.95 fold
  H23N18.3 ugt-8 expression, induction: 5.59 fold
  K05B2.4 expression, induction: 3.62 fold
  K07C6.3 cyp-35B2 expression, induction: 4.00 fold
  K07G6.4 cyp-35B1 expression, induction: 2.31 fold
  K08F4.7 gst-4 expression, induction: 9.69 fold
  K09A9.1 nipi-3 expression, induction: 1.52 fold
  K09D9.2 cyp-35A3 expression, induction: 3.13 fold
  K10D11.2 expression, induction: 1.97 fold
  K10G4.3 expression, induction: 2.74 fold
  R03D7.6 gst-5 expression, induction: 9.49 fold
  R08H2.1 dhs-23 expression, induction: 3.44 fold
  R10E8.3 expression, induction: 2.60 fold
  T19D12.3 expression, induction: 3.00 fold
  T19H12.1 ugt-9 expression, induction: 2.48 fold
  T21E8.1 pgp-6 expression, induction: 2.62 fold
  T22B7.3 expression, induction: 1.84 fold
  T24C4.4 expression, induction: 2.67 fold
  T24E12.5 expression, induction: 4.33 fold
  T27E4.3 hsp-16.48 expression, induction: 1.73 fold
  T27E4.8 hsp-16.1 expression, induction: 1.82 fold
  T27F6.8 expression, induction: 1.45 fold
  T28C12.4 expression, induction: 1.59 fold
  W02D9.10 expression, induction: 1.15 fold
  Y22D7AL.5 hsp-60 expression, induction: 1.77 fold
  Y38E10A.15 nspe-7 expression, induction: 2.14 fold
  Y46H3A.2 hsp-16.41 expression, induction: 2.00 fold
  Y46H3A.3 hsp-16.2 expression, induction: 1.72 fold
  Y56A3A.33 expression, induction: 1.77 fold
  Y58A7A.5 expression, induction: 3.10 fold
  ZC376.7 atfs-1 expression, induction: 1.86 fold
  ZC443.6 ugt-16 expression, induction: 2.76 fold
  ZK697.6 gst-21 expression, induction: 2.66 fold
glp-4(bn2) worms
  TD50 (time to 50% death), life span: 10.1 days
